From patent US9422293B2 (priority 2006, dated 2016) come the findings set out here.

SMILES strings stand for the structures. Where a name gives a salt, the structure may show the parent alone.

The target of this experiment is rat TRPV1 (Rattus norvegicus (Rat), UniProt O35433). The settings on record: read-out: Rat IC50.
rat TRPV1, sequence (O35433 whole entry): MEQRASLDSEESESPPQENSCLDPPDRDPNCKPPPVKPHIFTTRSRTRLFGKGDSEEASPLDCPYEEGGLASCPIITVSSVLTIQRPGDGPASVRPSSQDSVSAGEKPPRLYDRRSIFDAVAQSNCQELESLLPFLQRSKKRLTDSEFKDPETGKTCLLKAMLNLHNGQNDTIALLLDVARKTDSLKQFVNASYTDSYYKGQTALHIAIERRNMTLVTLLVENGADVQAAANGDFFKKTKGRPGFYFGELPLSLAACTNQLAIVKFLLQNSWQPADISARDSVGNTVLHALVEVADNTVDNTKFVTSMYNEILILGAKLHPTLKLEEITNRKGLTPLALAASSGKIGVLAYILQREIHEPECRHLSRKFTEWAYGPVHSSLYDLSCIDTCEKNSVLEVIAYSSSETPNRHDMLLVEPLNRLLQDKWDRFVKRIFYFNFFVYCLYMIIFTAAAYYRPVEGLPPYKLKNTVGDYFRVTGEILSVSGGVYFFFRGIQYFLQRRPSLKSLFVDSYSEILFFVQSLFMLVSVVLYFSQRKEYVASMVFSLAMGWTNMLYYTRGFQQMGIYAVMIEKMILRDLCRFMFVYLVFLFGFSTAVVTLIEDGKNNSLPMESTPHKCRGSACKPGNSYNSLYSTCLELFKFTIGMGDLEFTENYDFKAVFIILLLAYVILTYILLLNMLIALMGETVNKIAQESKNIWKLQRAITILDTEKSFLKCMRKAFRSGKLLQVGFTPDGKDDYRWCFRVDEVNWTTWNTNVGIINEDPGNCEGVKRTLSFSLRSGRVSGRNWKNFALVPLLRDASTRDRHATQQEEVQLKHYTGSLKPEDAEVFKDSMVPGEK
Usually IC50 stands for the point on the concentration scale where inhibition reaches its midpoint. Take `COCCN(C)c1nc2c(c(Nc3ccc(C(F)(F)F)cc3)n1)CCN(c1ncccc1C(F)(F)F)CC2` [Example 93B, N^2-(2-Methoxy-ethyl)-N^2-methyl-N^4-(4-trifluoromethyl-phenyl)-7-(3-trifluoromethyl-pyridin-2-yl)-6,7,8,9-tetrahydro-5H-pyrimido[4,5-d]azepine-2,4-diamine trifluoroacetic acid salt]: the IC50 turned out to be 37 nM.
Consider `O[C@H]1CCCN(c2nc3c(c(Nc4ccc(C(F)(F)F)cc4)n2)CCN(c2ncccc2C(F)(F)F)CC3)C1` [Example 94B, (S)-1-[4-(4-Trifluoromethyl-phenylamino)-7-(3-trifluoromethyl-pyridin-2-yl)-6,7,8,9-tetrahydro-5H-pyrimido[4,5-d]azepin-2-yl]-piperidin-3-ol trifluoroacetic acid salt], for which the IC50 was 190 nM.
The figure for `FC(F)(F)c1ccc(Nc2nc(NCC3CC3)nc3c2CCN(c2ncccc2C(F)(F)F)CC3)cc1` [Example 95B, N^2-Cyclopropylmethyl-N^4-(4-trifluoromethyl-phenyl)-7-(3-trifluoromethyl-pyridin-2-yl)-6,7,8,9-tetrahydro-5H-pyrimido[4,5-d]azepine-2,4-diamine trifluoroacetic acid salt] is 82 nM; for `CC(=O)c1ccc(Nc2nc(C(C)C)nc3c2CCN(c2ncccc2C(F)(F)F)CC3)cc1` [Example 96, 1-{4-[2-Isopropyl-7-(3-trifluoromethyl-pyridin-2-yl)-6,7,8,9-tetrahydro-5H-pyrimido[4,5-d]azepin-4-ylamino]-phenyl}-ethanone] it is 340 nM.
The figure for `CC(C)c1nc2c(c(Nc3ccc(C#N)cc3)n1)CCN(c1ncccc1C(F)(F)F)CC2` [Example 97, 4-[2-Isopropyl-7-(3-trifluoromethyl-pyridin-2-yl)-6,7,8,9-tetrahydro-5H-pyrimido[4,5-d]azepin-4-ylamino]-benzonitrile] is 490 nM; for `FC(F)(F)c1ccc(Nc2nc(N3CCNCC3)nc3c2CCN(c2ncccc2C(F)(F)F)CC3)cc1` [Example 99B, [2-Piperazin-1-yl-7-(3-trifluoromethyl-pyridin-2-yl)-6,7,8,9-tetrahydro-5H-pyrimido[4,5-d]azepin-4-yl]-(4-trifluoromethyl-phenyl)-amine trifluoroacetic acid salt] it is 7200 nM; for `FC(F)(F)c1ccc(Nc2nc(N3CCSCC3)nc3c2CCN(c2ncccc2C(F)(F)F)CC3)cc1` [Example 100, [2-Thiomorpholin-4-yl-7-(3-trifluoromethyl-pyridin-2-yl)-6,7,8,9-tetrahydro-5H-pyrimido[4,5-d]azepin-4-yl]-(4-trifluoromethyl-phenyl)-amine] it is 31 nM.
The figure for `CC(C)c1nc2c(c(Nc3ccc(S(=O)(=O)C(F)(F)F)cc3)n1)CCN(c1ncccc1C(F)(F)F)CC2` [Example 101B, [2-Isopropyl-7-(3-trifluoromethyl-pyridin-2-yl)-6,7,8,9-tetrahydro-5H-pyrimido[4,5-d]azepin-4-yl]-(4-trifluoromethanesulfonyl-phenyl)-amine trifluoroacetic acid salt] is 990 nM.
On to `FC(F)(F)c1ccc(Nc2nc(N3CCN(Cc4ccccc4)CC3)nc3c2CCN(c2ncccc2C(F)(F)F)CC3)cc1` [Example 102, [2-(4-Benzyl-piperazin-1-yl)-7-(3-trifluoromethyl-pyridin-2-yl)-6,7,8,9-tetrahydro-5H-pyrimido[4,5-d]azepin-4-yl]-(4-trifluoromethyl-phenyl)-amine], for which the IC50 amounted to 170 nM.
As to `COC(=O)c1ccc(Nc2nc(C(C)C)nc3c2CCN(c2ncccc2C(F)(F)F)CC3)cc1` [Example 103, 4-[2-Isopropyl-7-(3-trifluoromethyl-pyridin-2-yl)-6,7,8,9-tetrahydro-5H-pyrimido[4,5-d]azepin-4-ylamino]-benzoic acid methyl ester], the IC50 was found to be 340 nM.
